# Biological target: human α2δ-1 subunit of Cav2.2 calcium channel (Homo sapiens (Human), UniProt P54289)
# Assay: Binding assay to human α2δ-1 subunit of Cav2.2 calcium channel ([3H]-Gabapentin)
# Settings: not given
# Outline: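 [3H]-gabapentin binding, 60 min at 27° C; nonspecific binding defined with 10 μM pregabalin. Terminated by filtration on PEI-presoaked GF/C filters, ice-cold 50 mM Tris-HCl pH 7.4 washes, then scintillation counting.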
# Chain of human α2δ-1 subunit of Cav2.2 calcium channel (P54289 25-1103): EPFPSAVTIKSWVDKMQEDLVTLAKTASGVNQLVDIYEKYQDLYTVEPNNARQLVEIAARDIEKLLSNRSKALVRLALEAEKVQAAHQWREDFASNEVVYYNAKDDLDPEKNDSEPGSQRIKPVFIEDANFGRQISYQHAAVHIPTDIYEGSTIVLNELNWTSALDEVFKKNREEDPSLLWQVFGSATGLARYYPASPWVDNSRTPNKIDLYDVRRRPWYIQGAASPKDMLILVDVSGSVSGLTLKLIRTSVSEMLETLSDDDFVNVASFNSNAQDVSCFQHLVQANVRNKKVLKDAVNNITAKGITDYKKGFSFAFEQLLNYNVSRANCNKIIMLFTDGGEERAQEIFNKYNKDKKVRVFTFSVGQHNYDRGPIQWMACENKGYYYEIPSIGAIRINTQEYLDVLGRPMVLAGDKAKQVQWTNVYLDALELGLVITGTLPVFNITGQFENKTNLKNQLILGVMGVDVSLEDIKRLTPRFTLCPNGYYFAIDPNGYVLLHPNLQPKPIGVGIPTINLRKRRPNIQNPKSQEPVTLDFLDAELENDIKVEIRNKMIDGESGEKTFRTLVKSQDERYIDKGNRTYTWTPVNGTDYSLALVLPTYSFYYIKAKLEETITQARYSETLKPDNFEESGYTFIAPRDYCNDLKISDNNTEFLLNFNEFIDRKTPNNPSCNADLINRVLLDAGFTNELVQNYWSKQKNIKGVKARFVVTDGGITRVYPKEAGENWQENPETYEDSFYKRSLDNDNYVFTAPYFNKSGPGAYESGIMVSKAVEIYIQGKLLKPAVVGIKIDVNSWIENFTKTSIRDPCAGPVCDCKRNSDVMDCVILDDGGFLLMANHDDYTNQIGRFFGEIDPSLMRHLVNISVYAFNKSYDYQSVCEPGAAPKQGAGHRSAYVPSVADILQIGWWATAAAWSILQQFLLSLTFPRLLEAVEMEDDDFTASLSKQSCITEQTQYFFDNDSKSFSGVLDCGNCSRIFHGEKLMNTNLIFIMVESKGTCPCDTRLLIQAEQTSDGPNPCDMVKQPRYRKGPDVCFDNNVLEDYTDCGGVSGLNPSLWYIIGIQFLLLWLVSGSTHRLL
row,Structure (SMILES),Ki
1,CCNc1ncc2c(n1)N(C)CCN(c1cccc(CO[C@@H](CCNC)c3cccs3)c1)C2=O (stereo in doubt) [Example 213],500 to 3000 nM

# Same assay, conditions: binding to α2δ-1, [3H]-Gabapentin; read-out: Ki (nM) α2δ-1
row,Structure (SMILES),Ki
1,"CCNc1ncc2c(n1)N(C)CCN(c1cccc(O[C@H](CCN(C)C(=O)OC(C)(C)C)c3ccccc3)c1)C2=O [Example 70, tert-butyl (R)-(3-(3-(2-(ethylamino)-9-methyl-5-oxo-5,7,8,9-tetrahydro-6H-pyrimido[4,5-e][1,4]diazepin-6-yl)phenoxy)-3-phenylpropyl)(methyl) carbamate]",> 3000 nM
2,"Cc1ncc2c(n1)N(C)CCN(c1cccc(OC(CCN(C)C(=O)OCC[Si](C)(C)C)c3cccs3)c1)C2=O (stereo not drawn) [Example 144, 2-(trimethylsilyl)ethyl (3-(3-(2,9-dimethyl-5-oxo-5,7,8,9-tetrahydro-6H-pyrimido[4,5-e][1,4]diazepin-6-yl)phenoxy)-3-(thiophen-2-yl)propyl)(methyl) carbamate]",> 3000 nM
3,"CCNc1ncc2c(n1)N(C)CCN(Cc1cccc(OC(CCNC)c3ccccc3)c1)C2=O (stereo not drawn) [Example 407, 2-(ethylamino)-9-methyl-6-(3-(3-(methylamino)-1-phenylpropoxy)benzyl)-6,7,8,9-tetrahydro-5H-pyrimido[4,5-e][1,4]diazepin-5-one]",100 to 500 nM
4,CCN1CCN(Cc2ccc(O[C@@H](CCNC)c3cccs3)cc2)C(=O)c2cnc(OC)nc21 [Example 395],100 to 500 nM
5,"CCNc1ncc2c(n1)N(C)CCN(c1ccccc1COC(CCNC)c1ccccc1)C2=O (stereo not drawn) [Example 337, 2-(ethylamino)-9-methyl-6-(2-((3-(methylamino)-1-phenylpropoxy)methyl)phenyl)-6,7,8,9-tetrahydro-5H-pyrimido[4,5-e][1,4]diazepin-5-one]",> 3000 nM
6,"COc1ncc2c(n1)N(C)CCN(c1cccc(CO[C@H](CCN(C)C(=O)OC(C)(C)C)c3ccccc3)c1)C2=O [Example 138, tert-Butyl (R)-(3-((3-(2-methoxy-9-methyl-5-oxo-5,7,8,9-tetrahydro-6H-pyrimido[4,5-e][1,4]diazepin-6-yl)benzyl)oxy)-3-phenylpropyl)(methyl)carbamate]",> 3000 nM
7,"CNc1ncc2c(n1)N(C)CCN(c1cccc(CO[C@H](CCN(C)C(=O)OC(C)(C)C)c3ccccc3)c1)C2=O [Example 132, tert-butyl (R)-methyl(3-((3-(9-methyl-2-(methylamino)-5-oxo-5,7,8,9-tetrahydro-6H-pyrimido[4,5-e][1,4]diazepin-6-yl)benzyl)oxy)-3-phenylpropyl)carbamate]",> 3000 nM
8,"CSc1ncc2c(n1)N(C)CCN(c1ccc(O[Si](C)(C)C(C)(C)C)cc1)C2=O [Example 38, 6-(4-((tert-butyldimethyl-silyl)oxy)phenyl)-9-methyl-2-(methylthio)-6,7,8,9-tetrahydro-5H-pyrimido[4,5-e][1,4]diazepin-5-one]",> 3000 nM
9,"CCNc1ncc2c(n1)N(C)CCN(c1cccc(CCN3CCC(c4ccccc4)(N(C)C)CC3)c1)C2=O [Example 438, 6-(3-(2-(4-(dimethylamino)-4-phenylpiperidin-1-yl)ethyl)phenyl)-2-(ethylamino)-9-methyl-6,7,8,9-tetrahydro-5H-pyrimido[4,5-e][1,4]diazepin-5-one]",500 to 3000 nM
10,"CSc1ncc2c(n1)N(C)CCN(c1cccc(CO[C@H](CCN(C)C(=O)OC(C)(C)C)c3cccs3)c1)C2=O [Example 16, tert-butyl (R)-methyl(3-((3-(9-methyl-2-(methylthio)-5-oxo-5,7,8,9-tetrahydro-6H-pyrimido[4,5-e][1,4]diazepin-6-yl)benzyl)oxy)-3-(thiophen-2-yl)propyl) carbamate]",> 3000 nM
11,"CCNc1ncc2c(n1)N(C)CCN(c1cccc(-n3cc(CN(C)C(=O)OC(C)(C)C)cn3)c1)C2=O [Example 122, tert-butyl ((1-(3-(2-(ethylamino)-9-methyl-5-oxo-5,7,8,9-tetrahydro-6H-pyrimido[4,5-e][1,4]diazepin-6-yl)phenyl)-1H-pyrazol-4-yl)methyl)(methyl) carbamate]",> 3000 nM
12,"CNc1ncc2c(n1)N(C)CCN(c1cccc(-c3nnc(C)o3)c1)C2=O [Example 100, 9-methyl-6-(3-(5-methyl-1,3,4-oxadiazol-2-yl)phenyl)-2-(methylamino)-6,7,8,9-tetrahydro-5H-pyrimido[4,5-e][1,4]diazepin-5-one]",100 to 500 nM
13,"CSc1ncc2c(n1)N(C)CCN(c1cccc(-n3cc(CN(Cc4ccccc4)C(=O)OC(C)(C)C)nn3)c1)C2=O [Example 41, tert-butyl benzyl((1-(3 (9-methyl-2-(methylthio)-5-oxo-5,7,8,9-tetrahydro-6H pyrimido[4,5-e][1,4]diazepin-6-yl)phenyl)-1H-1,2,3-triazol-4-yl)methyl) carbamate]",> 3000 nM
14,"CSc1ncc2c(n1)N(C)CCN(c1cccc(-c3nnc(C)o3)c1)C2=O [Example 29, 9-methyl-6-(3-(5-methyl-1,3,4-oxadiazol-2-yl)phenyl)-2-(methylthio)-6,7,8,9-tetrahydro-5H-pyrimido[4,5-e][1,4]diazepin-5-one]",> 3000 nM
15,"CSc1ncc2c(n1)N(C)CCN(c1cccc(O[C@@H](CCN(C)C(=O)OC(C)(C)C)c3cccs3)c1)C2=O [Example 14, tert-butyl (S)-methyl(3-(3-(9-methyl-2-(methylthio)-5-oxo-5,7,8,9-tetrahydro-6H-pyrimido[4,5-e][1,4]diazepin-6-yl)phenoxy)-3-(thiophen-2-yl)propyl) carbamate]",> 3000 nM
16,"CCNc1ncc2c(n1)N(C)CCN(c1cccc(COC(CCNCCF)c3cccs3)c1)C2=O (stereo not drawn) [Example 345, 2-(ethylamino)-6-(3-((3-((2-fluoroethyl)amino)-1-(thiophen-2-yl)propoxy)methyl)phenyl)-9-methyl-6,7,8,9-tetrahydro-5H-pyrimido[4,5-e][1,4]diazepin-5-one]",100 to 500 nM
17,"CCNc1ncc2c(n1)N(C)CCN(c1cccc(COCC(c3ccccc3)N(C)C(=O)OC(C)(C)C)c1)C2=O (stereo not drawn) [Example 86, tert-butyl (2-((3-(2-(ethylamino)-9-methyl-5-oxo-5,7,8,9-tetrahydro-6H-pyrimido[4,5-e][1,4]diazepin-6-yl)benzyl)oxy)-1-phenylethyl)(methyl) carbamate]",> 3000 nM

# Results, then the compound that gave them:
row,Ki,Structure (SMILES)
1,> 3000 nM,"CCNc1ncc2c(n1)N(C)CCN(c1cccc(OCCCN(Cc3ccccc3)C(=O)OC(C)(C)C)c1)C2=O [Example 89, tert-butyl benzyl (3-(3-(2-(ethylamino)-9-methyl-5-oxo-5,7,8,9-tetrahydro-6H-pyrimido[4,5-e][1,4]diazepin-6-yl)phenoxy)propyl) carbamate]"
2,500 to 3000 nM,"CCNc1ncc2c(n1)N(C)CCN(c1cccc(OCCN3CCCCC3)c1)C2=O [Example 439, 2-(ethylamino)-9-methyl-6-(3-(2-(piperidin-1-yl)ethoxy)phenyl)-6,7,8,9-tetrahydro-5H-pyrimido[4,5-e][1,4]diazepin-5-one]"
3,100 to 500 nM,"CCNc1ncc2c(n1)N(C)CCN(c1cccc(CCN(C)CCc3ccccc3)c1)C2=O [Example 270, 2-(ethylamino)-9-methyl-6-(3-(2-(methyl(phenethyl)amino)ethyl)phenyl)-6,7,8,9-tetrahydro-5H-pyrimido[4,5-e][1,4]diazepin-5-one]"
4,500 to 3000 nM,"CCNc1ncc2c(n1)N(C)CCN(c1cccc(-n3cc(CN(C)CCOCCO)nn3)c1)C2=O [Example 273, 2-(ethylamino)-6-(3-(4-(((2-(2-hydroxyethoxy)ethyl) (methyl)amino)methyl)-1H-1,2,3-triazol-1-yl)phenyl)-9-methyl-6,7,8,9-tetrahydro-5H-pyrimido[4,5-e][1,4]diazepin-5-one]"
5,> 3000 nM,"CCNc1ncc2c(n1)N(C)CCN(c1cccc(CCO)c1)C2=O [Example 113, 2-(ethylamino)-6-(3-(2-hydroxyethyl)phenyl)-9-methyl-6,7,8,9-tetrahydro-5H-pyrimido[4,5-e][1,4]diazepin-5-one]"
6,100 to 500 nM,"CCNCc1cn(-c2cccc(N3CCN(C)c4nc(NCC)ncc4C3=O)c2)nn1 [Example 286, 2-(ethylamino)-6-(3-(4-((ethylamino)methyl)-1H-1,2,3-triazol-1-yl)phenyl)-9-methyl-6,7,8,9-tetrahydro-5H-pyrimido[4,5-e] [1,4]diazepin-5-one]"
7,100 to 500 nM,"CCNc1ncc2c(n1)N(C)CCN(c1cccc(-n3cc(CNC)nn3)c1)C2=O [Example 180, 2-(ethylamino)-9-methyl-6-(3-(4-((methylamino)methyl)-1H-1,2,3-triazol-1-yl)phenyl)-6,7,8,9-tetrahydro-5H-pyrimido[4,5-e][1,4]diazepin-5-one]"
8,> 3000 nM,"CCNc1ncc2c(n1)N(C)CCN(c1cccc(CN(C)C(=O)OC(C)(C)C)c1)C2=O [Example 94, tert-butyl (3-(2-(ethylamino)-9-methyl-5-oxo-5,7,8,9-tetrahydro-6H-pyrimido[4,5-e][1,4]diazepin-6-yl)benzyl)(methyl) carbamate]"
9,> 3000 nM,"COCCNc1ncc2c(n1)N(C)CCN(c1cccc(-c3nnc(C)o3)c1)C2=O [Example 99, 2-((2-methoxyethyl)amino)-9-methyl-6-(3-(5-methyl-1,3,4-oxadiazol-2-yl)phenyl)-6,7,8,9-tetrahydro-5H-pyrimido[4,5-e][1,4]diazepin-5-one]"
10,500 to 3000 nM,"CCNc1ncc2c(n1)N(C)CCN(c1cccc(OC(C)CN(C)CCc3ccccc3)c1)C2=O (stereo not drawn) [Example 263, 2-(ethylamino)-9-methyl-6-(3-((1-(methyl(phenethyl)amino)propan-2-yl)oxy)phenyl)-6,7,8,9-tetrahydro-5H-pyrimido[4,5-e][1,4]diazepin-5-one]"
11,100 to 500 nM,"CCNc1ncc2c(n1)N(C)CCN(c1cccc(-n3cc(CNCCOCCO)nn3)c1)C2=O [Example 290, 2-(ethylamino)-6-(3-(4-(((2-(2-hydroxyethoxy)ethyl)amino)methyl)-1H-1,2,3-triazol-1-yl)phenyl)-9-methyl-6,7,8,9-tetrahydro-5H-pyrimido[4,5-e] [1,4]diazepin-5-one]"

# Same assay, conditions: read-out: Ki (nM) α2δ-1; Table 2, dual compounds; [3H]-Gabapentin binding
row,Structure (SMILES),Ki
1,CCNc1ncc2c(n1)N(C)CCN(c1cccc(CO[C@@H](CCNC)c3cccs3)c1)C2=O (stereo in doubt) [Example 213],500 to 3000 nM

# — patent US10590140B2, “Tetrahydropyrimidodiazepine and dihydropyridodiazepine compounds for treating pain and pain related conditions” (ESTEVE PHARMACEUTICALS, S.A., priority 2016, dated 2020)
